From US20090038025A1, “Selection system for maize transformation” (BASF Plant Science GmbH, priority 2005, published 2009)

Tested on: corn immature embryos
Assay: Immature embryo germination inhibition bioassay (kill curves)
Format: cell-based, Zea mays
Settings: immature embryos 2 mm on germination medium, 27° C. in light; shoot and primary root length 7 days after dissection
Procedure: In order to establish effective concentrations of D-Serine and D-Alanine on inhibiting growth of tissue cultured corn cells, a bioassay system using immature embryos was applied. Immature embryos 2 mm in length were dissected onto germination medium with the selection agents, and incubated at 27° C. in light. The lengths of the shoot and primary root of a germinated seedling were measured 7 days after embryo dissection (FIGS. 1A and 1B).

Structure (SMILES): N[C@H](CO)C(=O)O [D-Serine]
- concentration above which significant/pronounced growth inhibition occurs: higher than 9 mM

Structure (SMILES): C[C@@H](N)C(=O)O [D-Alanine]
- concentration above which significant/pronounced growth inhibition occurs: higher than 2 mM
